Measured values reported in patent publication EP0923292B1, “IMPROVED METHOD FOR SYSTEMIC ADMINISTRATION OF 2,4-DIENOIC ACID-TYPE INSECTICIDES TO TERRESTRIAL MAMMALS” (priority 1996, dated 1998).

Experiments:
[1] = Methoprene blood concentrations in dogs following a single oral dose (gas chromatography); type: in vivo; details: single oral dose 50 mg/kg
Method: Six healthy mixed breed dogs, three male and three female, of weight ranging from 14 to 22 kg per dog and ages ranging from 2 to 5 years, were utilized. For each dog, a gelatin capsule containing a measured volume of (S)-methoprene was prepared, based on the dog's weight to yield a dose of 50 mg/kg of the dog's body weight in a single gelatin capsule for each dog. The dogs were fasted 24 hours before administration of their individual capsules, and dosing was achieved by placing the capsule in the back of each dog's throat and causing the dog to swallow. Food was then withheld for an additional 8 hours, although water was always available, and the dogs were fed once the following morning.
At each sampling time, 50 mL of blood was collected from the femoral vein of each dog into two 25-mL syringes. Samples were taken seven days prior to dosing (to establish a baseline), followed by three hours, 1 day, 2 days, 4 days, and 7 days after dosing.
To prepare the blood samples for methoprene content determinations, each 25-mL blood sample was mixed with 200 mL acetonitrile, 25 g anhydrous Na2SO4, and 10 g CELITE® in a blender for three one-minute segments, allowing the blender blades to cool for thirty seconds between segments. The mixture was then vacuum filtered, including a wash with 50 mL acetonitrile. The filtrate was extracted with petroleum ether for one minute, then diluted with 700 mL deionized water. To this was added 50 g NaCI and the solution was acidified to pH 2 with 0.5 N HCl. The aqueous phase was then discarded, and the petroleum ether phase was washed twice with 600 mL of deionized water. The petroleum ether was then filtered through a glass wool plug topped with 50 g Na2SO4. The Na2SO4 was then rinsed with 15 mL petroleum ether, and the extractant concentrated to 10 mL in a rotary evaporator, using a bath temperature of 30°C. The concentrated extractant was then stored in a refrigerator until the next step in the analysis.
Extraction columns were prepared by heat activating FLORISIL® (magnesium silicate absorbent) at 200°C for 24 hours, then allowing the FLORISIL to cool for 45 minutes, adding 5 mL of distilled water per 50 g of FLORISIL, shaking the mixture, and allowing it to equilibrate for 3 hours. A glass column with 28 mm intemal diameter was plugged with glass wool and filled with petroleum ether. A 1-cm layer of Na2SO4 was slowly poured into the column, followed by 6.5 cm of FLORISIL and 1.5 cm of Na2SO4. The petroleum ether was then drained until it reached the layer of Na2SO4. The extractant from the preceding paragraph was then loaded into the top of the column with a glass pipette, and its content rinsed with petroleum ether and added to the column. The column was then drained until the solvent layer was above the Na2SO4, and the eluant was discarded. Elution was then performed with 1 L of 5% diethyl ether/petroleum ether for each sample, and fractions of 175 mL and 825 mL were collected. The 825 mL fraction was then evaporated to 5 mL and stored in a refrigerator.
To prepare the 825 mL fraction for gas chromatography, one mL of internal standard was added to the sample, and the sample volume was evaporated to approximately 0.3 mL with nitrogen. Two aliquots of 5 µL each were injected on a gas chromatograph (Perkin Elmer, Sigma 300, with hydrogen flame ionization detector and data system) equipped with a 6-foot-by 1/4-inch glass column with 3% OV-101 Chrom W HP 100/120 mesh packing, using nitrogen at 60 mUmin as the carrier gas, and injector, column and detector temperatures of 300°C, 166°C, and 280°C, respectively.

C. felis = assay: Systemic ovicidal activity upon oral administration (initial bolus plus daily diet) to host dogs (Example 3); type: in vivo, C. felis (host: dogs); details: eggs collected from the dogs, week 4
Source text: Eleven days before the administration of the first gelatin capsule (i.e., on Day -11), and weekly thereafter through Day 59, each dog was infested with approximately 200 one-to two-week-old, unfed adult C. fells fleas of mixed sex ratio. Each dog was restrained for about one minute while the fleas were released along the dorsum.
Flea eggs were collected on Days -7, 0, 1, 2, 4, 7, and weekly thereafter through Day 63. Prior to egg collection, the cages in which the dogs were housed and the collection trays were rinsed with isopropyl alcohol, and the water was turned off, feed bowls and resting pads were removed from each cage. […] Using a dissecting microscope and a fine tipped artist brush, 100 flea eggs were counted from the sweepings of each dog and separated into four replicates of 25 eggs each. […] Seventy two hours after collection, larvae emergence was determined. Both dead and live larvae were counted to determine the ovicidal effect of the treatment. […]
Three days prior to the week 4 data point, each dog was infested with fleas in the manner described in Example 2. At week 4, flea eggs were collected from the dogs themselves in the manner described in Example 2, and the percent inhibition of egg hatch for the fleas collected in this manner was determined as in Example 2.

Compound `COC(C)(C)CCC[C@H](C)C/C=C/C(C)=C/C(=O)OC(C)C` [(S)-Methoprene, 1-isopropyl (E,E)-11-methoxy-3,7,11-trimethyl dodecadi-2,4-enoate] has a concentration at 0 h ([1]; both sexes, mixed breed, dog, in vivo, mean of six dogs, 0 hours (baseline, seven days prior to dosing)) of 0 ng/mL, a concentration at 3 h ([1]; both sexes, mixed breed, dog, in vivo, mean of six dogs, 3 hours) of 547 ng/mL and a concentration at 24 h ([1]; both sexes, mixed breed, dog, in vivo, mean of six dogs, 24 hours) of 85 ng/mL. The concentration at 48 h ([1]; both sexes, mixed breed, dog, in vivo, mean of six dogs, 48 hours) was 104 ng/mL, the “time by which methoprene level fell below detectable amounts” value ([1]; remaining four of the six dogs) was at most 96 h and the “time (S)-methoprene remains in the dogs' blood” value [1] was 48 to 96 h. For the same compound, the “time by which methoprene level fell below detectable amounts” value ([1]; two of the six dogs) was at most 48 h, the “Percent Inhibition of Flea Egg Hatching” value (C. felis; initial bolus 25 mg/kg then daily diet 0.01% (S)-methoprene) was 100% and the “Percent Inhibition of Flea Egg Hatching” value (C. felis; initial bolus 50 mg/kg then daily diet 0.02% (S)-methoprene) was 100%.
